The record followed here is patent US6720322B2, “Butyne diol derivatives” (Actelion Pharamceuticals Ltd., priority 1999, dated 2004).

For data set [1], the target named is T1, rat tracheal rings (ETB receptors) (Rattus norvegicus, UniProt P21451).
T1 construct: The thoracic aorta or trachea were excised, dissected and cut in 3-5 mm rings; from tissue; host or cells: tracheal rings of adult Wistar rats, epithelium removed
T1 sequence (P21451 27-442): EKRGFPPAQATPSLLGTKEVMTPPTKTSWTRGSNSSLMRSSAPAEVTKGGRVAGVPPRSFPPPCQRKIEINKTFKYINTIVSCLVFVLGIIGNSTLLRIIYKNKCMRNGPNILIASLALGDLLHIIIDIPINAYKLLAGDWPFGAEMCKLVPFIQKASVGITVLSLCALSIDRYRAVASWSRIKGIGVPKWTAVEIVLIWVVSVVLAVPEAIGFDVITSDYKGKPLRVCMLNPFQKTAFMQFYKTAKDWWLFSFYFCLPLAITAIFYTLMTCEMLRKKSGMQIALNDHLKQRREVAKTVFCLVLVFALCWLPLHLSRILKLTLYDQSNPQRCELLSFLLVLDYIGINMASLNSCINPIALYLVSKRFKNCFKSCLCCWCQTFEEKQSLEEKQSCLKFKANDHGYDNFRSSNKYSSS
The data set can be described thus: Inhibition of sarafotoxin S6c-induced contraction of isolated rat tracheal rings. The following applies: contraction induced by sarafotoxin S6c, 10 min incubation with the test compound; read-out: pA2 trachea (converted). Type of data set: cell-based.
Method: 2) Inhibition of Endothelin-induced Contractions on Isolated Rat Aortic Rings (ETA Receptors) and Rat Tracheal Rings (ETB Receptors)
The functional inhibitory potency of the endothelin antagonists was assessed by their inhibition of the contraction induced by endothelin-1 on rat aortic rings (ETA receptors) and of the contraction induced by sarafotoxin S6c on rat tracheal (ETB receptors). Adult Wistar rats were anesthetized and exsanguinated. The thoracic aorta or trachea were excised, dissected and cut in 3-5 mm rings. The endothelium/epithelium was removed by gentle rubbing of the intimal surface. […] The rings were connected to force transducers and isometric tension was recorded (EMKA Technologies SA, Paris, France). The rings were stretched to a resting tension of 3 g (aorta) or 2 g (trachea). […] The functional inhibitory potency of the test compound was assessed by calculating the concentration ratio, i.e. the shift to the right of the EC50 induced by different concentrations of test compound. EC50 is the concentration of endothelin needed to get a half-maximal contraction, pA2 is the negative logarithm of the antagonist concentration which induces a two-fold shift in the EC50 value.

Data set [2] addresses T2, human recombinant ETB receptors (Homo sapiens, UniProt P24530).
T2 construct: expressed in transfected cells; host or cells: CHO cells (microsomal membranes)
T2 sequence (P24530 27-442): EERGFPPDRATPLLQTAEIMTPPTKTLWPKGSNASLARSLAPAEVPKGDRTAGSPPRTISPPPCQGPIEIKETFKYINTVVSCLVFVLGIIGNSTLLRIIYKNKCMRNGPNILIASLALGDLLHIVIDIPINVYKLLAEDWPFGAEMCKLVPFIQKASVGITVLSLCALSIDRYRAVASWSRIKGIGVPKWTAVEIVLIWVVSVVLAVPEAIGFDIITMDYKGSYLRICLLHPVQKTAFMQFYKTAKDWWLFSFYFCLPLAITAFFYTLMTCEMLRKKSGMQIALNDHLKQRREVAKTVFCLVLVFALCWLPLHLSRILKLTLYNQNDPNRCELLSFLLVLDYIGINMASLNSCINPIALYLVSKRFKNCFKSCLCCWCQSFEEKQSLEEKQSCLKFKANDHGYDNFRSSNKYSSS
The data set can be described thus: Inhibition of [125I]ET-1 binding to membranes of CHO cells expressing human recombinant ETB receptors. Note: 2.5% DMSO. As to the method:
(§1) 1) Inhibition of Endothelin Binding to Membranes from CHO Cells Carrying Human ET Receptors:
(§2) For competition binding studies, membranes of CHO cells expressing human recombinant ETA or ETB receptors were used.
(§3) The assay was performed in 200 uL 50 mM Tris/HCl buffer, pH 7.4, including 25 mM MnCl2, 1 mM EDTA and 0.5% (w/v) BSA in polypropylene microtiter plates. […] After two h, the membranes were filtered on filterplates containing GF/C filters (Unifilterplates from Canberra Packard S.A. Zürich, Switzerland). To each well, 50 uL of scintillation cocktail was added (MicroScint 20, Canberra Packard S.A. Zürich, Switzerland) and the filter plates counted in a microplate counter (TopCount, Canberra Packard S.A. Zürich, Switzerland).
(§4) All the test compounds were dissolved, diluted and added in DMSO.

Data set [3] concerns the target T3, rat aortic rings (ETA receptors) (Rattus norvegicus, UniProt P26684).
T3 sequence (P26684 21-426): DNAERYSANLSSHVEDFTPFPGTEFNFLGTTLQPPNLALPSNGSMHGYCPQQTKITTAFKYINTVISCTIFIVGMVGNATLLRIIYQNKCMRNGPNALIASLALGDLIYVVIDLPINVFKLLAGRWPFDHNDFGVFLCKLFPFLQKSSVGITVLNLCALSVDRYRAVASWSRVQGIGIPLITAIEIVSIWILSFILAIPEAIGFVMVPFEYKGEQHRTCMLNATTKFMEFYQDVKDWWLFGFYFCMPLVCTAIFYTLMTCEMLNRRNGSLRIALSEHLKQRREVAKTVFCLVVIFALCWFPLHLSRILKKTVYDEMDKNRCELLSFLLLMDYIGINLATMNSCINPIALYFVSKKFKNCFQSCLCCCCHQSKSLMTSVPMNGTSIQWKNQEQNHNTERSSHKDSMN
The data set can be described thus: Inhibition of endothelin-1-induced contraction of isolated rat aortic rings.

Data set [4] deals with T4, human recombinant ETA receptors (Homo sapiens, UniProt P25101).
T4 construct: expressed in transfected cells; host or cells: CHO cells (microsomal membranes)
T4 sequence (P25101 21-427): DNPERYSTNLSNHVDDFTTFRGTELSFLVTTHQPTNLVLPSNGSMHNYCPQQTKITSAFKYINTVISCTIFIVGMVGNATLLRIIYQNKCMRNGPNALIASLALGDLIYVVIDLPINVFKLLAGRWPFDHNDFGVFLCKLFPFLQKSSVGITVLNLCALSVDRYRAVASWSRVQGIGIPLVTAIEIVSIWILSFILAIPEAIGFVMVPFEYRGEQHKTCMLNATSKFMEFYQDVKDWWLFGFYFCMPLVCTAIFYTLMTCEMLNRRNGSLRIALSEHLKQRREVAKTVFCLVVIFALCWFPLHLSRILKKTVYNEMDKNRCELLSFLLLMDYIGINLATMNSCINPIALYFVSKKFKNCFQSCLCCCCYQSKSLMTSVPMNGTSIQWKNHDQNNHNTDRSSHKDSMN
The data set can be described thus: Inhibition of [125I]ET-1 binding to membranes of CHO cells expressing human recombinant ETA receptors. Note: 2.5% DMSO. As to the method: as §1, §2, §3, §4

pIC50: −log10 of the molar value.

What is called pIC50 is −log10 of the IC50, conventionally taken in molar units. As a reminder, the melting point is the temperature, or range, at which the solid turns liquid.

For the molecule `Cc1ccc(-c2c(NS(=O)(=O)c3ccc(C(C)C)cn3)nc(-c3ccncc3)nc2OCC#CCO)cc1` [Example 11d, 5-isopropyl-N-[6-(4-hydroxy-2-butynyloxy)-5-(p-tolyl)-2-(4-pyridyl)-4-pyrimidinyl]-2-pyridine sulfonamide], the results for the Kb in data set [1] and in data set [3] were 93.3 nM and 89.1 nM, respectively. In addition, the pIC50 was 7.01 in data set [2] and 7.31 in data set [4].

For the molecule `COc1cc(OC)nc(OCC#CCOc2nc(-c3ccncc3)nc(NS(=O)(=O)c3ccc(C(C)C)cn3)c2Oc2ccccc2OC)n1` [Example 18, 5-isopropyl-N-[6-(4-(4,6-dimethoxy-2-pyrimidinyloxy)-2-butynyloxy)-5-(o-methoxyphenoxy)-2-(4-pyridyl)-4-pyrimidinyl]-2-pyridine sulfonamide], the pIC50 in data set [2] was 7.44; in data set [4] it was 7.10.

On to `COc1ccccc1Oc1c(NS(=O)(=O)c2ccc(C(C)(C)C)cc2)nc(-c2ccncc2)nc1OCC#CCOc1ncccn1` [Example 19, 4-tert.-butyl-N-[6-(4-(2-pyrimidinyloxy)-2-butynyloxy)-5-(o-methoxyphenoxy)-2-(4-pyridyl)-4-pyrimidinyl]-benzene sulfonamide], for which the Kb in data set [1] is 24 nM; in data set [3], > 10000 nM. In addition, the values for the pIC50 in data set [2] and in data set [4] were 7.35 and 6.95, respectively.

Turning to `COc1cc(OC)nc(OCC#CCOc2nc(-c3ccncc3)nc(NS(=O)(=O)c3ccc(C(C)(C)C)cc3)c2Oc2ccccc2OC)n1` [Example 21, 4-tert.-butyl-N-[6-(4-(4,6-dimethoxy-2-pyrimidinyloxy)-2-butynyloxy)-5-(o-methoxyphenoxy)-2-(4-pyridyl)-4-pyrimidinyl]-benzene sulfonamide], the values for the pIC50 in data set [2] and in data set [4] were 7.36 and 6.64, respectively.

As to `COc1ccccc1Oc1c(NS(=O)(=O)c2ccc(C(C)C)cn2)nc(-c2ccncc2)nc1OCC#CCOC(=O)Nc1cccc(C)c1` [Example 54, m-tolyl-carbamic acid 4-[6-(5-isopropyl-pyridine-2-sulfonylamino)-5-(2-methoxy-phenoxy)-2-pyridin-4-yl-pyrimidin-4-yloxy]-but-2-ynyl ester], the melting point lay within 163 to 165 °C.

For `COc1ccccc1Oc1c(NS(=O)(=O)c2ccc(C(C)C)cn2)nc(C)nc1OCC#CCOC(=O)Nc1ccccc1` [Example 70], the results for the pIC50 in data set [2] and in data set [4] were 6.43 and 7.03, respectively.

In the case of `COCC#CCOc1nc(N2CCOCC2)nc(NS(=O)(=O)c2ccc(C(C)C)cn2)c1Oc1ccccc1OC` [Example 94, 5-isopropyl-N-[6-(4-methoxy-2-butynyloxy)-5-(o-methoxyphenoxy)-2-(N-morpholino)-4-pyrimidinyl]-2-pyridine sulfonamide], the pIC50 in data set [2] is 6.97; in data set [4], 7.89.
